Laboratory results published in patent publication US20230286979A1, “SALT OF DIHYDROPYRIDO[2,3-D]PYRIMIDINONE DERIVATIVE, PREPARATION METHOD THEREFOR, AND USE THEREOF” (NANJING CHIA TAI TIANQING PHARMACEUTICAL CO., LTD., priority 2020, published 2023).

System: AKT kinase
Experiment: AKT kinase activity inhibition, summary statement of Test Example 1
Type: biochemical
Details: as demonstrated by Test Example 1
Experimental: g) The plate was sealed, the reaction solution was mixed until uniform and reacted at the room temperature for 1 h, and fluorescence signals were detected by using an ENVISION (Perkinelmer) instrument (320 nm stimulation, 665 nm, 615 nm emission). An inhibition rate in each well was calculated from all active wells and background signal wells, a mean value of repetitive wells was calculated, and the half inhibitory activity (IC50) of each compound to be tested was fitted by using the professional drawing analysis software PRISM 6.0.

CC(C)NC[C@@H](C(=O)N1CCN(c2ncnc3c2[C@H](C)CC(=O)N3)[C@H]2C[C@H]21)c1ccc(Cl)cc1 (single isomer, unassigned) [Isomer 2 of Example 1]
inhibiting effect on the AKT kinase activity: has an inhibiting effect
